Data taken from patent publication US8604053B2, “TRPV1 antagonists” (AbbVie Inc., priority 2008, dated 2013).

Columns and labels:
CYP3A4 = molecular target: T1, CYP3A4 (Homo sapiens, UniProt P08684); experiment: CYP3A4 inhibition assay; assay type: in vitro ADME; conditions: pH 7.4, probe 7-benzyloxyquiniline (BZQ), 50 μM final, human liver microsomes, substrate BZQ, read-out: CYP3A4 % inh @ 2.2 μM
T1 construct: human liver microsomes (BD Gentest, 450 μL; final concentration: 0.4 mg/mL); tissue BD Gentest; host or cells: human liver microsomes
T1 sequence (P08684 whole entry): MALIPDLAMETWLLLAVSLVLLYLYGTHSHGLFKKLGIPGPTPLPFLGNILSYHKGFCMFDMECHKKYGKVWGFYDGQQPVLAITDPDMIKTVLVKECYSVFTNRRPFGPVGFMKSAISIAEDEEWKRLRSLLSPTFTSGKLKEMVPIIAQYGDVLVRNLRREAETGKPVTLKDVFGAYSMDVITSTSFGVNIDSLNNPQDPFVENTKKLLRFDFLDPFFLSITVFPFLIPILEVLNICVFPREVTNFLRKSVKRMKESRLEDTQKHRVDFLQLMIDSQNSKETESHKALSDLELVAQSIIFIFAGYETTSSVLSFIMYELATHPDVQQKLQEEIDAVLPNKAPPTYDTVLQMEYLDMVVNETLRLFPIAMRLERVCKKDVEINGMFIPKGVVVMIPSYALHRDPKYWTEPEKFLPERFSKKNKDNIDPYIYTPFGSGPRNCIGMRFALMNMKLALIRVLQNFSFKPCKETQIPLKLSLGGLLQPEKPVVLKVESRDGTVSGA
Procedure: Luciferin-H was used as the substrate for CYP2C9; 3-[2-(N,N-diethyl-N-methylammonium)ethyl]-7-methoxy-4-methylcoumarin (AMMC) was used as the substrate for CYP2D6; 7-benzyloxyquiniline (BZQ) was used as the substrate for CYP3A4.
Pre-Incubation Mixture Preparation for CYP3A4: A pre-incubation mixture was prepared by combining 100 mM phosphate buffer (19.35 mL; pH 7.4), human liver microsomes (BD Gentest, 450 μL; final concentration: 0.4 mg/mL), and 10 mM nicotinamide adenine dinucleotide phosphate in 65.4 mM MgCl2 hexahydrate (225 μL; final concentration: 100 μM and 654 μM, respectively). To this was mixture was added a ‘regeneration’ mixture (225 μL) of 333 mM glucose-6-phosphate and 40 U/mL glucose-6-phosphate dehydrogenase in 5 mM sodium citrate (final concentration: 3.3 mM, 0.4 U/mL, and 0.05 mM, respectively).
Substrate Mixture Preparation for CYP3A4: To a solution of 100 mM phosphate buffer, (2.36 mL, pH 7.4) was added 30 mM BZQ in acetonitrile (40 μL; final solution concentration 0.5 mM, final assay concentration 50 μM).
(§1) CYP3A4 Inhibiton Assay: To each well in the assay plate containing varying concentrations of test compound or control compound in DMSO (10 μL), CYP3A4 Pre-Incubation Mixture (90 μL) was added to the wells and the assay plate was pre-incubated for 10 minutes at 37° C., with shaking or rocking. A pre-read of each well was performed at 405 nm and 535 nm extinction/emission. CYP3A4 Substrate Mixture (10 μL) was added to all wells and the assay plate was incubated for an additional […] at 37° C., with shaking or rocking. Final DMSO concentration was 1%. A post-read of each well was then performed at 405 nm and 535 nm extinction/emission.

[1] = Rat telemetry protocol, core body temperature; assay type: in vivo; conditions: core body temperature of rats one hour post dosing, 100 μmol/kg p.o., relative to vehicle
Procedure: Male, Sprague Dawley rats, 225-250 grams were anesthetized with Sevoflurane (Abbott Laboratories). Rats were placed on a heating pad and covered with a sterile surgical drape. A ventral midline abdominal incision was made and sterile cotton tip applicators were used to gently move internal tissue and expose the abdominal aorta for implantation of the telemetry catheter (Data Sciences International; TL11M2-050-PXT). Blood flow was temporarily stopped to the lower extremities (5-7 min) with Diffenbach clamps to allow the insertion of the telemetry catheter into the abdominal aorta. Once inserted, a sterile cellulose patch was placed over the catheter/aorta and secured using a small amount of tissue adhesive (Vetbond, 3M). Once catheter placement was complete, the clamps were removed and blood flow was restored to the lower extremities. Thetransmitter was placed in the intraperitoneal cavity. The transmitter suture rib was sewn into the abdominal sutures to secure it in place. The skin was closed using sterile wound clips and the animal removed from Sevoflurane. Buprenex ([…] s.c.; Phoenix) was administered for post-operative analgesia. Animals were maintained on a heating pad until ambulatory, and then individually housed with food and water ad lib. Surgical staples were removed after 7-10 days post-implantation. Rats were allowed a 2-week post-surgical recovery period before treatment with test compound. Oral dosing (p.o.) was at time zero, with rats receiving a single dose of vehicle (10% EtOH, 20% Tween-80, 70% PEG-400) or a 100 μmol/kg dose of compound dissolved in vehicle. Temperature measurements were recorded every 15 minutes for the duration of the study (24 hours).
Representative compounds described herein have the novel property of having limited transient temperature effect on core body temperature of a mammal (e.g. rats). For example, compounds tested alter core body temperature of rats by less than about +0.5° C. at about 1 hour after administration of a single dose (100 μmol/kg) of the test compounds orally, for example, in the range from about −2.5° C. to less than about +0.5° C., from about −0.5° C. to less than about +0.5° C.; or from about −0.3° C. to about +0.3° C.
The term “core body temperature” as used herein, means the temperature measured in the intraperitoneal cavity.

CYP2D6 = molecular target: T2, CYP2D6 (Homo sapiens, UniProt P10635); experiment: in vitro; assay type: in vitro ADME; conditions: human, microsomes, pH 7.4
T2 construct: human liver microsomes (BD Gentest); tissue BD Gentest; host or cells: human liver microsomes
T2 sequence (P10635 whole entry): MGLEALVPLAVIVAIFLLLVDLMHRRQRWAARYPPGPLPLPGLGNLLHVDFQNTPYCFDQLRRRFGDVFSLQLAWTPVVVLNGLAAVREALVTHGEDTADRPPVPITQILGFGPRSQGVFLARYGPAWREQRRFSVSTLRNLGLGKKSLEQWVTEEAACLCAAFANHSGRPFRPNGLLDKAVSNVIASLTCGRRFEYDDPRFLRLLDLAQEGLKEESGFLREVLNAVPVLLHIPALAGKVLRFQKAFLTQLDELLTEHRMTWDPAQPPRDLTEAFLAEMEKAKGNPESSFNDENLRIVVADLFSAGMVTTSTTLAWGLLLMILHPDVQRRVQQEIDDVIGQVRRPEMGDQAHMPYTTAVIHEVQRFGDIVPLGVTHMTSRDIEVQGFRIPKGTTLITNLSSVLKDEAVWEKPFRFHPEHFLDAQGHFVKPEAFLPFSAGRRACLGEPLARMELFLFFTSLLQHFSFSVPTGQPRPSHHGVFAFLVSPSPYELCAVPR
Procedure: Stock solutions of test compounds were assayed in 96-well format for their ability to inhibit CYP2C9, CYP2D6, or CYP3A4 mediated metabolism of test substrates. Luciferin-H was used as the substrate for CYP2C9; 3-[2-(N,N-diethyl-N-methylammonium)ethyl]-7-methoxy-4-methylcoumarin (AMMC) was used as the substrate for CYP2D6; 7-benzyloxyquiniline (BZQ) was used as the substrate for CYP3A4. For each subtype, positive controls (sulphaphenazole in the case of CYP2C9; quinidine in the case of CYP2D6, ketoconazole in the case of CYP3A4) were used to validate assay results run in duplicate.
Pre-Incubation Mixture Preparation for CYP2C9 and CYP2D6: A pre-incubation mixture was prepared by combining 100 mM phosphate buffer (9.12 mL; pH 7.4), human liver microsomes (BD Gentest, 240 itt; final concentration: 0.4 mg/mL), and 10 mM nicotinamide adenine dinucleotide phosphate in 65.4 mM MgCl2 hexahydrate (120 μL; final concentration: 125 μM and 818 μM, respectively). To this was mixture is added a ‘regeneration’ mixture (120 μL) of 333 mM glucose-6-phosphate and 40 U/mL glucose-6-phosphate dehydrogenase in 5 mM sodium citrate (final concentration: 4 mM, 0.5 U/mL, and 0.06 mM, respectively).
Substrate Mixture Preparation for CYP2D6: To a solution of 100 mM phosphate buffer, (2.80 mL, pH 7.4) was added 10 mM AMMC in acetonitrile (14 itt; final solution concentration 0.05 mM, final assay concentration 10 μM).
as §1, with “CYP2D6” for “CYP3A4”, “μL),” for “μL), CYP3A4”, “(40” for “(90”, “390” for “405”, “460” for “535”

Compound	inhibition at 25 min, 2.2 µM (CYP3A4) [%]	Δ Temp (° C.) [1] [°C]	inhibition at 25 min, 2.2 µM (CYP2D6) [%]
Cc1cc2c(NC(=O)N[C@@H]3C[C@](C)(CF)Oc4cc(Cl)ccc43)cccc2cn1 (single isomer, unassigned) [Example 121]	23	0.0	8
Cc1cc2c(NC(=O)N[C@@H]3C[C@@](C)(CF)Oc4cc(Cl)ccc43)cccc2cn1 (single isomer, unassigned) [Example 122]	20	0.0	5
Cc1cc2c(NC(=O)N[C@@H]3C[C@@](C)(C(F)F)Oc4cc(Cl)ccc43)cccc2cn1 (single isomer, unassigned) [Example 124]	21	0.0	8.4
CC1(C)C[C@@H](NC(=O)Nc2cccc3cnccc23)c2cc(F)ccc2O1 [Example 5, N-[(4R)-6-fluoro-2,2-dimethyl-3,4-dihydro-2H-chromen-4-yl]-N′-isoquinolin-5-ylurea]	61	−0.2	100
CC1(C)C[C@@H](NC(=O)Nc2cccc3cnccc23)c2ccc(F)cc2O1 [Example 23, N-[(4R)-7-fluoro-2,2-dimethyl-3,4-dihydro-2H-chromen-4-yl]-N′-isoquinolin-5-ylurea]	69	−0.7	
CC1(C)C[C@@H](NC(=O)Nc2cccc3cnccc23)c2ccccc2O1 [Example 27, N-[(4R)-2,2-dimethyl-3,4-dihydro-2H-chromen-4-yl]-N′-isoquinolin-5-ylurea]	65	−1.0	
CCC1(CC)C[C@@H](NC(=O)Nc2cccc3cnccc23)c2cc(F)ccc2O1 [Example 28, N-[(4R)-2,2-diethyl-6-fluoro-3,4-dihydro-2H-chromen-4-yl]-N′-isoquinolin-5-ylurea]	19	−0.2	98
CC1(C)C[C@@H](NC(=O)Nc2cccc3cnccc23)c2ccc(C(F)(F)F)cc2O1 [Example 34, N-[(4R)-2,2-dimethyl-7-(trifluoromethyl)-3,4-dihydro-2H-chromen-4-yl]-N′-isoquinolin-5-ylurea]	36	−1.6	97
Cc1cc2c(NC(=O)N[C@@H]3CC(CF)(CF)Oc4ccc(F)cc43)cccc2cn1 [Example 65, N-[(4R)-6-fluoro-2,2-bis(fluoromethyl)-3,4-dihydro-2H-chromen-4-yl]-N′-(3-methylisoquinolin-5-yl)urea]	0.57	0.0	12
Cc1cc2c(NC(=O)N[C@@H]3CCOc4c(OC(F)(F)F)cccc43)cccc2cn1 [Example 66, N-(3-methylisoquinolin-5-yl)-N′-[(4R)-8-(trifluoromethoxy)-3,4-dihydro-2H-chromen-4-yl]urea]	0	−0.9	9.5
Cc1cc2c(NC(=O)N[C@@H]3CC(CF)(CF)Oc4cc(Cl)ccc43)cccc2cn1 [Example 84, N-[(4R)-7-chloro-2,2-bis(fluoromethyl)-3,4-dihydro-2H-chromen-4-yl]-N′-(3-methylisoquinolin-5-yl)urea]		0.0	49
Cc1cc2c(NC(=O)N[C@@H]3CC(CF)(CF)Oc4ccccc43)cccc2cn1 [Example 101, N-[(4R)-2,2-bis(fluoromethyl)-3,4-dihydro-2H-chromen-4-yl]-N′-(3-methylisoquinolin-5-yl)urea]		0.0	11
Cc1cc2c(NC(=O)N[C@@H]3CC(CF)(CF)Oc4cc(Br)ccc43)cccc2cn1 [Example 102, N-[(4R)-7-bromo-2,2-bis(fluoromethyl)-3,4-dihydro-2H-chromen-4-yl]-N′-(3-methylisoquinolin-5-yl)urea]		−0.7	20
